Reference: ChEMBL document CHEMBL5512616, “pH regulators and their inhibitors in tumor microenvironment” (Eur J Med Chem, 2024)
Values joined by “and” are separate entries in the source; they are usually repeats but may differ in a detail not shown here. Identical values can stand only once. Values belong to the compound of their own block, whether it stands above or below them.

Key:
[1] = molecular target: T1, Monocarboxylate transporter 1 (Rattus norvegicus, UniProt P53987)
T1 sequence (P53987 whole entry): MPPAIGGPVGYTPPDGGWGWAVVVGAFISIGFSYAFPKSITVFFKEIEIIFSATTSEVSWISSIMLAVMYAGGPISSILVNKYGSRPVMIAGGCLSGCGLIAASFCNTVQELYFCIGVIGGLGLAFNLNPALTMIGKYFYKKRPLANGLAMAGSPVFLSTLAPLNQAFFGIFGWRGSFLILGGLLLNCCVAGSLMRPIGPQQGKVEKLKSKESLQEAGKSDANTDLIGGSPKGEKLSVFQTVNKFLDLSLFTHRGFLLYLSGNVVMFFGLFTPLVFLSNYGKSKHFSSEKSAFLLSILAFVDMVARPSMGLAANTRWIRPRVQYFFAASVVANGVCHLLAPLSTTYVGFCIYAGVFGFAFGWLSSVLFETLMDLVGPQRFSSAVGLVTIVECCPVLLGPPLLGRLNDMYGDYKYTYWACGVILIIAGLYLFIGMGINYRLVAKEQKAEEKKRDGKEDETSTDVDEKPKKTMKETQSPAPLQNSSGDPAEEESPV

[2] = molecular target: T2, Carbonic anhydrase 2 (Homo sapiens, UniProt P00918)
[3] = molecular target: T3, Sodium/hydrogen exchanger 1 (Homo sapiens, UniProt P19634)
[4] = molecular target: T3, Sodium/hydrogen exchanger 1; format: cell-based, Platelet
[5] = molecular target: T4, Monocarboxylate transporter 1 (Homo sapiens, UniProt P53985)
T4 sequence (P53985 whole entry): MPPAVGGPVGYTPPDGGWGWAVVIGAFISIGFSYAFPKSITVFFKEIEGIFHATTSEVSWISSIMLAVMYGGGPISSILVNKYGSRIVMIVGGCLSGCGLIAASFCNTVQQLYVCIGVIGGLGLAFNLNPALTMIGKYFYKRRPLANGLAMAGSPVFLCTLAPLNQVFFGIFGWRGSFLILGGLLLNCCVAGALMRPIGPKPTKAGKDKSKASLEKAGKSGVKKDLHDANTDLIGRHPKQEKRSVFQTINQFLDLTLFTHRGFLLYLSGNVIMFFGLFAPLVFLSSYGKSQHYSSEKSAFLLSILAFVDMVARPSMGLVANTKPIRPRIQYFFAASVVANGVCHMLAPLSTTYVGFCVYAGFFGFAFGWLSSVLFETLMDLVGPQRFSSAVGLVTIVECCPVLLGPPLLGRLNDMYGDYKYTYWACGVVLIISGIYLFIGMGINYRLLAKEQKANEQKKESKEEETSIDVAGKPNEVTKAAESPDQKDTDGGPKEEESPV

[6] = molecular target: T5, Monocarboxylate transporter 4 (Homo sapiens, UniProt O15427)
T5 sequence (O15427 whole entry): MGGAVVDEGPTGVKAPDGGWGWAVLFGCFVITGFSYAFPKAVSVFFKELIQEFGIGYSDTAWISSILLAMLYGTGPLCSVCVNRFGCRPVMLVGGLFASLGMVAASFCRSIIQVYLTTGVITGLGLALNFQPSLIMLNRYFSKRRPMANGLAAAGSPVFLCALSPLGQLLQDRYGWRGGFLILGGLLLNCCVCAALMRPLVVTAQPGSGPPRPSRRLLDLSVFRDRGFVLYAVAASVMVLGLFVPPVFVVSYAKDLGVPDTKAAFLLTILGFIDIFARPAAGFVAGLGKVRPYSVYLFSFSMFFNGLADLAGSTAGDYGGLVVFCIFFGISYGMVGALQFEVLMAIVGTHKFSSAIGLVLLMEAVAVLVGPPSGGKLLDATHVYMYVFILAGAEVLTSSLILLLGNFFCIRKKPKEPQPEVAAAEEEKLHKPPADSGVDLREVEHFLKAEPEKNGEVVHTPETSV

[7] = molecular target: T3, Sodium/hydrogen exchanger 1; remark: listed apart in the source
[8] = system: A549; assay: cells; settings: Homo sapiens
[9] = system: MCF7; assay: cells; settings: Homo sapiens
[10] = system: HepG2; assay: cells; settings: Homo sapiens
[11] = molecular target: T2, Carbonic anhydrase 2; remark: listed apart in the source
[12] = molecular target: T5, Monocarboxylate transporter 4; remark: listed apart in the source
[13] = molecular target: T4, Monocarboxylate transporter 1; remark: listed apart in the source
[14] = molecular target: T6, Carbonic anhydrase 9 (Homo sapiens, UniProt Q16790)
[15] = molecular target: T6, Carbonic anhydrase 9; remark: listed apart in the source
[16] = system: MCF7; assay: cells; settings: Homo sapiens, MCF7, 96 h
[17] = molecular target: T6, Carbonic anhydrase 9; remark: listed apart in the source
[18] = molecular target: T5, Monocarboxylate transporter 4; remark: listed apart in the source
[19] = molecular target: T4, Monocarboxylate transporter 1; remark: listed apart in the source
[20] = molecular target: T4, Monocarboxylate transporter 1; remark: listed apart in the source
[21] = molecular target: T2, Carbonic anhydrase 2; remark: listed apart in the source
[22] = molecular target: T4, Monocarboxylate transporter 1; remark: listed apart in the source
[23] = molecular target: T4, Monocarboxylate transporter 1; remark: listed apart in the source
[24] = system: Raji; assay: cells; settings: Homo sapiens, 96 h

T3 sequence (P19634 whole entry): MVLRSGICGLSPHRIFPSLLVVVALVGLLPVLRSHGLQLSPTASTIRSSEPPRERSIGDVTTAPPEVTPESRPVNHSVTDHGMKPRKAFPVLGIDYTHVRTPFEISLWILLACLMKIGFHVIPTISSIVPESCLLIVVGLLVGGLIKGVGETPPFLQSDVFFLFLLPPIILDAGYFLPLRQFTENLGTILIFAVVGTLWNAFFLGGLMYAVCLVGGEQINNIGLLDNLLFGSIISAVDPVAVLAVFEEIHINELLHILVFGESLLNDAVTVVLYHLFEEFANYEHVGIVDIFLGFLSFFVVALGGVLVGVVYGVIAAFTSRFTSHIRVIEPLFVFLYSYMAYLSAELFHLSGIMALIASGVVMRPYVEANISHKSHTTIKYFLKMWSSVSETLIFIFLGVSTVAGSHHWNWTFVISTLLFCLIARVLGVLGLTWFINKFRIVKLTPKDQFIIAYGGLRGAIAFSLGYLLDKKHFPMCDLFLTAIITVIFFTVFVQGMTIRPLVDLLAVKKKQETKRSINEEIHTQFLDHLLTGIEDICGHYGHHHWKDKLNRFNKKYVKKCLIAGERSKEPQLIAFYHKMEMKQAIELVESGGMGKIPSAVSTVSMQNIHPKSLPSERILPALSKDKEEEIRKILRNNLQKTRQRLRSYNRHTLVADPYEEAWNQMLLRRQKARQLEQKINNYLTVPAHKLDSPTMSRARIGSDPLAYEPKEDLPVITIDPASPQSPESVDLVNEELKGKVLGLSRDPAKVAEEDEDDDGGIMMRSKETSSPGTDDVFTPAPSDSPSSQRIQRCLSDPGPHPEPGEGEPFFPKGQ

IC50 [1]: 97 nM
Compound: CC(C)(C)[Si](CCOc1ccc(/C=C(\C#N)C(=O)O)cc1)(c1ccccc1)c1ccccc1

Ki [2]: > 50000 nM
Compound: O=c1ccc2cc(-n3cc(CNc4ccc(Br)cc4)nn3)ccc2o1

IC50 [3]: 200 nM
Compound: CC(C)N1C(=O)C(C)(C)Oc2cc(C(=O)N=C(N)N)ccc21

IC50 [3]: 104 nM
Compound: COc1ccc(CN2CCN(CCOc3ccc(C(=O)N=C(N)N)cc3[N+](=O)[O-])CC2)c(OC)c1OC

IC50 [3]: 10 nM
Compound: NC(N)=NC(=O)c1ccc2c(Br)cccc2c1

IC50 [1]: > 1000 nM
Compound: N#C/C(=C\c1c[nH]c2ccccc12)C(=O)O

IC50 [3]: 155 nM
Compound: Cc1c[nH]c(=O)n(CC(=O)N=C(N)N)c1=O

IC50 [3]: 68 nM
Compound: COc1ccc(CN2CCN(CCOc3ccc(C(=O)NC(=N)N)cc3NC(=O)c3sccc3C)CC2)c(OC)c1OC

IC50 [3]: 108 nM
Compound: CCCCCOc1ccc(C(=O)CN2CCN(Cc3ccc(OC)c(OC)c3OC)CC2)cc1C(=O)N=C(N)N

IC50 [4]: 25 nM
Compound: Cc1ccc(-c2cc(C)c(C(=O)N=C(N)N)cc2S(C)(=O)=O)cc1

IC50 [3]: 5800 nM
Compound: Cn1c(=O)n(Cc2nnc(N)[nH]2)c(=O)c2ccccc21

Ki [2]: > 10000 nM
Compound: O=C(Oc1ccc2c(-c3ccccc3)cc(=O)oc2c1)c1ccccc1

IC50 [5]: ~100000 nM
IC50 [6]: > 300000 nM
Compound: CCOC(=O)N1CCC(=C2c3ccc(Cl)cc3CCc3cccnc32)CC1 [LORATADINE]

IC50 [7]: 85 nM
Compound: Cc1nc(C(=O)N=C(N)N)c(N)nc1N1CCCOCC1

IC50 [3]: 17 nM
Compound: Cc1nc2c(cc1C(=O)N=C(N)N)CCCCC2

IC50 [8]: 1550 nM
IC50 [9]: 4680 nM
IC50 [10]: 2700 nM
Ki [11]: 85.7 nM
Compound: Nc1nn(C(=O)C23CC4CC(CC(C4)C2)C3)c(N)c1/N=N/c1ccccc1

IC50 [12]: 0.36 nM
IC50 [13]: 64000 nM
Compound: CC[C@](C)(OCc1cc(-c2cccc(OC3CC3)c2)n(-c2ccccc2N2CCC2)n1)C(=O)O

Ki [14]: 625 nM
Ki [2]: > 100000 nM
Compound: CC(=O)c1ccc(-c2cc3ccccc3oc2=O)nc1C

IC50 [4]: 800 nM and 200 nM
Compound: CC(C)c1ccc(C(=O)NC(=N)N)cc1S(C)(=O)=O [CARIPORIDE]

Ki [15]: 8.9 nM
Ki [11]: 44 nM
Compound: NS(=O)(=O)c1ccc(CN/C=C/C(=O)/C=C/c2cc3ccccc3oc2=O)cc1

Compound: N#Cc1cc2ccc(O)cc2oc1=O
Ki [2]: > 200000 nM

IC50 [3]: 6 nM
Compound: NC(N)=NC(=O)c1cc2cccc3c2n1C(=O)CCCC3

IC50 [16]: 10500 nM
Ki [17]: 4.46 nM
Compound: C=C(C)[C@@H]1CC[C@]2(COS(N)(=O)=O)CC[C@]3(C)[C@H](CC[C@@H]4[C@@]5(C)CC[C@H](OC(=O)NCC)C(C)(C)[C@@H]5CC[C@]43C)[C@@H]12

Ki [2]: > 100000 nM
Compound: Cc1nc(-c2cc3ccccc3oc2=O)ccc1C(=O)/C=C/c1ccccc1

IC50 [3]: 100 nM
Compound: Cc1cccc2c1cc(C(=O)N=C(N)N)n2C

IC50 [18]: > 50000 nM
IC50 [19]: 85 nM
Compound: O=C(Nc1ccccc1C(=O)O)c1cc(S(=O)(=O)c2ccccc2)ccc1Cl

Ki [20]: > 500000 nM
Compound: CC(C)(OCc1nn(Cc2ccccc2)c2ccccc12)C(=O)O [BINDARIT]

Ki [2]: > 10000 nM
Compound: COc1ccc(CSc2nnc(COc3ccc4c(C)cc(=O)oc4c3)o2)cc1

IC50 [4]: 3300 nM
Compound: N=C(N)NC(=O)c1nc(Cl)c(N2CCCCCC2)nc1N [N,N-HEXAMETHYLENEAMILORIDE]

IC50 [4]: 500 nM
Compound: CCN(c1nc(N)c(C(=O)NC(=N)N)nc1Cl)C(C)C [5-(N-ETHYL-N-ISOPROPYL)AMILORIDE]

IC50 [4]: 100 nM and 800 nM
Compound: CS(=O)(=O)c1cc(C(=O)N=C(N)N)ccc1N1CCCCC1

IC50 [7]: 174 nM
Compound: CC(C)CN(C)c1nc(N)c(C(=O)N=C(N)N)nc1Cl [5-(N-METHYL-N-ISOBUTYL)AMILORIDE]

Ki [15]: 61.5 nM
Ki [11]: > 10000 nM
Compound: Cc1cccc(N2C(=O)CSC2c2cn(-c3ccccc3)nc2-c2cc3ccccc3oc2=O)c1 (stereo unspecified)

IC50 [4]: 1300 nM
Compound: NC(N)=NC(=O)c1cc(Cl)c(N)nc1N

IC50 [5]: > 210000 nM
IC50 [6]: ~138000 nM
Compound: CC(C)c1c(C(=O)Nc2ccccc2)c(-c2ccccc2)c(-c2ccc(F)cc2)n1CC[C@@H](O)C[C@@H](O)CC(=O)O [ATORVASTATIN CALCIUM]

IC50 [3]: 120 nM
Compound: CC(C)N1C(=O)C(C)(C)Oc2ccc(C(=O)N=C(N)N)cc21

IC50 [4]: 2300 nM
Compound: NC(N)=NC(=O)c1nc(Cl)c(N)cc1N

IC50 [4]: 2 nM
Compound: Cc1cc(C(C)C)c(S(C)(=O)=O)cc1C(=O)N=C(N)N

IC50 [16]: 10400 nM
Compound: C=C(C)[C@@H]1CC[C@]2(COS(N)(=O)=O)CC[C@]3(C)[C@H](CC[C@@H]4[C@@]5(C)CC[C@H](OS(N)(=O)=O)C(C)(C)[C@@H]5CC[C@]43C)[C@@H]12

Ki [2]: > 100000 nM
Compound: O=C(CN1C(=O)CSC1=O)c1cc2ccccc2oc1=O

Ki [14]: 32.2 nM
Ki [2]: > 10000 nM
Compound: Cc1cc(=O)oc2cc(OCCCCCNc3nc4cc(-c5ccccc5)ccc4o3)ccc12

IC50 [4]: 3600 nM
Compound: CC(=O)Nc1cc([N+](=O)[O-])c(Cl)cc1C(=O)N=C(N)N

IC50 [4]: 16000 nM
Compound: NC(N)=NC(=O)c1cc(Cl)c(N)cc1N

IC50 [8]: 4390 nM
IC50 [9]: 8350 nM
IC50 [10]: 7820 nM
Ki [11]: 256 nM
Compound: CC(=O)C(C)/C(C)=N/NC(=O)C12CC3CC(CC(C3)C1)C2 (stereo unspecified)

IC50 [4]: 113 nM
Compound: Cc1cc(S(C)(=O)=O)c(S(C)(=O)=O)cc1C(=O)NC(=N)N [RIMEPORIDE]

Ki [21]: 204 nM
Compound: NS(=O)(=O)c1ccc(NCC(=O)N/N=C2\C(=O)N(Cc3ccccc3)c3ccccc32)cc1

IC50 [22]: 59 nM
Compound: CN(Cc1ccccc1)c1ccc2cc(C(=O)O)c(=O)oc2c1

IC50 [3]: 3530 nM
Compound: COc1ccc(CN2CCN(Cc3ccc(C(=O)N=C(N)N)cc3NC(=O)c3ccc(C(F)(F)F)cc3)CC2)c(OC)c1OC

Ki [11]: > 10000 nM
Compound: C=CCN1CCN(Cc2c(O)ccc3c(C)cc(=O)oc23)CC1

IC50 [23]: 6210 nM
Compound: O=c1c(O)c(-c2ccc(O)cc2O)oc2cc(O)cc(O)c12 [MORIN]

EC50 [24]: ≤ 100 nM
Compound: CC(C)c1cc(=O)c2c(OCc3ccccc3CO)cc(OCc3ncccc3C(F)(F)F)cc2o1

IC50 [23]: 2570 nM
Compound: O=C(CCc1ccc(O)cc1)c1c(O)cc(O)cc1O [PHLORETIN]

IC50 [4]: 80 nM
Compound: Cc1cc(-n2cccc2)c(S(C)(=O)=O)cc1C(=O)NC(=N)N [ENIPORIDE]

IC50 [1]: 66 nM
Compound: CCN(CC)c1ccc(/C=C(\C#N)C(=O)O)cc1

IC50 [3]: 500 nM
Compound: N=C(N)NC(=O)[C@H]1C[C@@H]1c1ccccc1

Compound: O=c1cc(-c2ccc(O)c(O)c2)oc2cc(O)cc(O)c12 [LUTEOLIN]
IC50 [23]: 410 nM

EC50 [24]: ≤ 100 nM
Compound: CC(C)c1cc(=O)c2c(OCc3ccccc3CO)cc(OCc3ccnc4ccccc34)cc2o1

IC50 [1]: > 1000 nM
Compound: N#C/C(=C\c1cn(-c2ccccc2C(=O)O)c2ccccc12)C(=O)O

Ki [11]: > 10000 nM
Compound: CC(C(=O)NCCOc1ccc2oc(=O)ccc2c1)c1ccc(-c2ccccc2)c(F)c1 (stereo unspecified)

EC50 [24]: ≤ 100 nM
Compound: CC(C)c1cc(=O)c2c(OCCCO)cc(OCc3cccc4ccccc34)cc2o1

IC50 [3]: 1000 nM
Compound: Cn1c(C(=O)N=C(N)N)cc2ccccc21
